“And” between values parts separate entries of the source, which are not always exact repeats. Equal values may be shown once. Read-outs that look alike come from different tables or passages of the source.
T1: GHSR (Homo sapiens, UniProt Q92847)
T1 chain: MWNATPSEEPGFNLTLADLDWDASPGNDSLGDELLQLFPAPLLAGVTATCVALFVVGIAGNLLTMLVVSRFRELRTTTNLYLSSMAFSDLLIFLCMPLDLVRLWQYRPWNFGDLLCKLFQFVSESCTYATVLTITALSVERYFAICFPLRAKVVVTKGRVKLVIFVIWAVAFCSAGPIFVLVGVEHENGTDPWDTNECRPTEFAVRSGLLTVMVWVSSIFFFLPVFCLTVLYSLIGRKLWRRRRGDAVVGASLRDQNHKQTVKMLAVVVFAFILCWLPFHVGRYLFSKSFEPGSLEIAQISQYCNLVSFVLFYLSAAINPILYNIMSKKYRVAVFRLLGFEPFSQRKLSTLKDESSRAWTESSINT


What was measured:
[1] = tested on: GHSR labeled with 7H4MC-ethylglycine at Y232^5.58; assay: Hydration parameter H from 7H4MC fluorescence emission; assay type: biochemical, human; conditions: for H parameter: 5.58, ligand 10 µM, POPC:POPG nanodiscs, 15°C, ex 320 nm
Text: (§1) We then investigated whether the fluorescence properties of 7H4MC-ethylglycine could report on the local hydration features of GHSR. To this end, we analyzed the 7H4MC emission profile for each of the positions considered. An excitation wavelength of 320 nm was systematically used to excite the neutral form of the fluorophore ([Amaro et al., 2015]). The emission spectra were deconvoluted into their separate components using the procedure initially described ([Amaro et al., 2015]). A hydration parameter H was then determined that corresponded to the sum of the contributions of the anionic and tautomer forms. This parameter is an indicator of the extent of hydration at the position considered, as the higher the H parameter the higher local hydration ([Amaro et al., 2015]). A difference in the H parameter inferred for the 7H4MC probe at the different positions of the apo GHSR was observed depending on the position considered (Figure 2—figure supplement 1, 2).
(§2) Figure 2. Local hydration of growth hormone secretagogue receptor (GHSR) as a function of ligands. […] All ligands were used at a 10 µM concentration. In all cases, the data represents the mean value ± SD of three experiments. Statistical analyses are provided in […]—figure supplement 2 and 4. Figure 2—source data 1. H parameter for GHSR and its mutants. Figure 2—figure supplement 1. Emission spectra of L-(7-hydroxycoumarin-4-yl) (7H4MC)-ethylglycine incorporated into isolated growth hormone secretagogue receptor (GHSR). The spectra were recorded in the absence of ligand. The labeling positions are given in a snake-like plot of GHSR ([Shiimura et al., 2020]) (A) (red: positions deleterious to GHSR function; green: positions considered in this work), and then indicated in each panel (B–F). The excitation wavelength was set to 320 nm with an emission intensity recorded between 340 and 600 nm. The gray curve represents the experimental emission spectrum (exp). The red, blue, green, and magenta spectra represent the decomposition of the experimental spectrum into its neutral (N), complexed (C), anionic (A), and tautomeric (T) components, respectively. The orange curve (fit) corresponds to sum of the individual N, C, A, and T curves. Figure 2—figure supplement 1—source data 1. 7-H4MC emission intensity of the apo GHSR mutants. [drawing 7] Figure 2—figure supplement 2. Statistical analysis of the data in Figure 2. […] Data is from Figure 2. […] Structure of the ligands used throughout this work. [drawing 9] Figure 2—figure supplement 4. Statistical analysis of the data in Figure 2. The left panels show the hydration parameter for each of the mutants in the absence or in the presence of ligands. Data are from Figure 2. The right panels show the mean difference between the apo and the ligand-loaded states for each of the mutants with multiplicity-adjusted 95% confidence intervals. [drawing 10] Figure 2—figure supplement 5. Emission spectra of L-(7-hydroxycoumarin-4-yl) (7H4MC)-ethylglycine incorporated at position 5.58 of growth hormone secretagogue receptor (GHSR) in the presence of pharmacologically distinct ligands or phosphatidylinositol-4,5-bisphosphate (PIP2). […] The excitation wavelength was set to 320 nm with an emission intensity recorded between 340 and 600 nm. The black curve represents the experimental emission spectrum (exp). The red one (fit) corresponds to sum of the individual curves after decomposition of the experimental spectrum into its neutral, complexed, anionic, and tautomeric components. Figure 2—figure supplement 5—source data 1. 7-H4MC emission intensity of the GHSR 5.58 mutant in the presence of ligands. [drawing 11] Figure 2—figure supplement 6. […]

[2] = tested on: GHSR labeled with 7H4MC-ethylglycine at F272^6.44; assay: as above; assay type: biochemical, human; conditions: for H parameter: 6.44, ligand 10 µM, POPC:POPG nanodiscs, 15°C, ex 320 nm
Text: as §1, §2

neurotensin receptor 1 = conditions: ref Yen et al., 2018; cited from earlier work
Text: (§3) In addition to ligands, other components in the receptor environment allosterically impact on GPCR activation and conformational dynamics. […] Among the lipids reported to affect GPCR signaling such as cholesterol ([Casiraghi et al., 2016]; [Zocher et al., 2012]) or charged phospholipids ([Strohman et al., 2019]; [Daw ...

ghrelin receptor = conditions: ref Damian et al., 2021; cited from earlier work
Text: as §3

β1-adrenergic receptor = conditions: ref Yen et al., 2018; cited from earlier work
Text: as §3

adenosine A2a receptor = conditions: ref Yen et al., 2018; cited from earlier work
Text: as §3

GHSR [3] = conditions: ref M'Kadmi et al., 2015; cited from earlier work
isolated GHSR = conditions: ref Mary et al., 2012; Damian et al., 2015; cited from earlier work
Text: We then used 7H4MC fluorescence to monitor the impact of ligand binding on the hydration pattern of GHSR.

7H4MC-labeled GHSR = assay: Hydration parameter H from 7H4MC fluorescence emission, several positions together; assay type: biochemical, human; conditions: any of the positions considered; saturating ligand (10 µM)
Text: as §1
Figure 2. Local hydration of growth hormone secretagogue receptor (GHSR) as a function of ligands. […] All ligands were used at a 10 µM concentration. […] The spectra were recorded in the absence of ligand. […] The excitation wavelength was set to 320 nm with an emission intensity recorded between 340 and 600 nm. […] The excitation wavelength was set to 320 nm with an emission intensity recorded between 340 and 600 nm. […]

[4] = tested on: GHSR labeled with 7H4MC-ethylglycine at V268^6.40; assay: Hydration parameter H from 7H4MC fluorescence emission; assay type: biochemical, human; conditions: 6.4, ligand 10 µM, POPC:POPG nanodiscs, 15°C, ex 320 nm
Text: as §1, §2

[5] = tested on: GHSR labeled with 7H4MC-ethylglycine at I134^3.43; assay: as above; assay type: biochemical, human; conditions: ligand 10 µM, POPC:POPG nanodiscs, 15°C, ex 320 nm
Text: as §1, §2

[6] = tested on: GHSR labeled with 7H4MC-ethylglycine at S315^7.45; assay: as above; assay type: biochemical, human; conditions: ligand 10 µM, POPC:POPG nanodiscs, 15°C, ex 320 nm
Text: as §1, §2

GHSR (Homo sapiens) [7] = target: GHSR (Homo sapiens) (UniProt Q92847); conditions: cited from earlier work
GHSR (Homo sapiens) [8] = target: GHSR (Homo sapiens) (UniProt Q92847); assay: 125I-ghrelin radioligand binding; conditions: cited from earlier work
GHSR (Homo sapiens) [9] = target: GHSR (Homo sapiens) (UniProt Q92847); assay: FRET; conditions: cited from earlier work
GHSR1a (Homo sapiens) = GHSR1a (Homo sapiens) (UniProt Q92847); conditions: cited from earlier work
GHSR [10] = conditions: ref Ferré et al., 2019; cited from earlier work
Procedure: For labeling with 7H4MC-ethylglycine, the TAG amber codon was introduced at the positions indicated in Figure 1A by site-directed mutagenesis with the pET21a expression vector encoding human GHSR fused to the α5 integrin ([Damian et al., 2012]). The UAA solution was prepared by dissolving 263 mg of 7H4MC-ethylglycine in 10 mL 200 mM KOH solution and filter-sterilizing. […] Cultures were grown at 37°C ...

GHSR [11] = target: T1, GHSR; assay: FRET
[12] = 2.5% PIP2 in nanodiscs, 10 µM ghrelin
[13] = saturating ligand (10 µM), vs apo

| Molecule | pharmacological class (GHSR [3]) | H parameter ([1]; replicate 1) | H parameter ([1]; replicate 2) | H parameter ([1]; replicate 3) | H parameter ([4]; replicate 1) | H parameter ([4]; replicate 2) | H parameter ([4]; replicate 3) | H parameter ([2]; replicate 1) | H parameter ([2]; replicate 2) | H parameter ([2]; replicate 3) | H parameter ([5]; replicate 1) | H parameter ([5]; replicate 2) | H parameter ([5]; replicate 3) | H parameter ([6]; replicate 1) | H parameter ([6]; replicate 2) | H parameter ([6]; replicate 3) | further results |
| --- | --- | --- | --- | --- | --- | --- | --- | --- | --- | --- | --- | --- | --- | --- | --- | --- | --- |
| phosphatidylinositol-4,5-bisphosphate [PIP2] | – | – | – | – | – | – | – | – | – | – | – | – | – | – | – | – | effect of adding PIP2 on the H parameter for position 5.58 [1, 12]: increased the H parameter for position 5.58; effect of adding PIP2 on the H parameter for position 6.44 [2, 12]: decreased that for position 6.44; stabilization of the receptor:G protein complex (neurotensin receptor 1): stabilize the receptor:G protein complex; effect on ghrelin signaling (ghrelin receptor): allosteric regulator of ghrelin signaling; stabilization of the receptor:G protein complex (β1-adrenergic receptor): stabilize the receptor:G protein complex; stabilization of the receptor:G protein complex (adenosine A2a receptor): stabilize the receptor:G protein complex |
| COc1ccc(Cn2c(CCc3c[nH]c4ccccc34)nnc2C(Cc2c[nH]c3ccccc23)NC(=O)c2ccccn2)c(OC)c1 (stereo not shown) [JMV3011] | neutral antagonist | 24.19 | 26.01 | 26.56 | 64.53 | 63.48 | 65.36 | 34.06 | 36.74 | 35.98 | 62.25 | 63.97 | 62.73 | 21.2 | 22.69 | 23.47 | change in the conformation of isolated GHSR (isolated GHSR): not associated with any change in the conformation of isolated GHSR; change in the hydration parameter upon binding (7H4MC-labeled GHSR): not accompanied by a measurable change in the hydration parameter |
| COc1ccc(Cn2c(CCc3ccccc3)nnc2[C@@H](Cc2c[nH]c3ccccc23)NC(=O)c2ccccn2)c(OC)c1 [JMV3002] | Gq-biased partial agonist | 26.59 | 27.63 | 28.26 | 66.83 | 65.42 | 67.29 | 24.24 | 22.63 | 23.15 | 67.89 | 65.22 | 66.89 | 21.56 | 20.44 | 18.97 | Gi activation and arrestin recruitment (GHSR [3]): triggers neither Gi activation nor arrestin recruitment; change in the hydration parameter at position 5.58 upon binding [1, 13]: no change was observed for the probe at position 5.58; change in the hydration parameter at position 6.44 upon binding [2, 13]: decrease in the hydration parameter at position 6.44 |
| ghrelin (from UniProt Q9UBU3) | – | – | – | – | – | – | – | – | – | – | – | – | – | – | – | – | Kd (GHSR (Homo sapiens) [7]): 12.5 nM; Kd (GHSR (Homo sapiens) [8]): 4.4 nM and 2.3 nM; Ki (GHSR (Homo sapiens) [9]): 4.6 nM; Kd (GHSR1a (Homo sapiens)): 0.4 nM |
| JMV2959 | – | – | – | – | – | – | – | – | – | – | – | – | – | – | – | – | pharmacological class (affinity chromatography ligands) (GHSR [10]): antagonist |
| GSSFLSPEHQRVQQRKESKKPPAKLQP [ghrelin] | – | – | – | – | – | – | – | – | – | – | – | – | – | – | – | – | Ki (GHSR [11]): 77 nM |

From paper PMC8416020 (eLife, 2021)
